# Read-outs that look alike come from different tables or passages of the source.
# Columns and labels:
# RAW264.7 macrophages = assay: Cell viability (WST-1 reagent); format: cell-based, mouse; settings: RAW264.7, 20 ng/ml IFNγ
# Protocol: (§1) FIGS. 1-16 and 20-24. Inhibition of NO Production. RAW264.7 macrophages were pre-treated with DMSO or drugs at various concentrations (μM) for 2 hours, then treated with IFNγ for 24 hours. NO concentration in media was determined using a Griess reagent system; cell viability was determined using the WST-1 reagent.
# (§2) RAW264.7 macrophages were pre-treated with DMSO or drugs for 2 hours, then treated with recombinant mouse IFNγ (Sigma) for 24 hours. NO concentration in media was determined using the Griess reagent system (Promega). Cell viability was determined using WST-1 reagent (Roche).
# [1] = system: IFNγ-induced NO production in RAW264.7 macrophages; assay: Suppression of IFNγ-induced NO production (Griess reagent); format: cell-based, mouse
# Protocol: as §1
# Compounds of the present disclosure have been tested for inhibition of NO production. Experimental details are provided in Example 1.
# as §2
# [2] = Mus musculus, RAW264.7, 20 ng/ml IFNγ, read-out: NO IC50
# [3] = Mus musculus, RAW264.7, read-out: NO IC50
# [4] = Mus musculus, RAW264.7, read-out: IC50 in the NO assay
# [5] = Mus musculus, RAW264.7, parent compounds, read-out: IC50 in the NO assay
SMILES,IC50 (RAW264.7 macrophages; Mus musculus),"IC50 [1, 2]","IC50 [1, 3]",other results
"COc1cc(C=CC2(C(C)(C)C(=O)/C=C/[C@@]3(C)C=C(C#N)C(=O)C(C)(C)C3)OCCO2)ccc1O [Compound C0010, (S)-3-((E)-4-(2-(4-hydroxy-3-methoxystyryl)-1,3-dioxolan-2-yl)-4-methyl-3-oxopent-1-enyl)-3,5,5-trimethyl-6-oxocyclohex-1-enecarbonitrile]",5000 nM,700 nM,–,–
"C[C@]1(/C=C/c2ccc(O)cc2)C=C(C#N)C(=O)CC1 [Compound R00141, (S,E)-3-(4-hydroxystyryl)-3-methyl-6-oxocyclohex-1-enecarbonitrile]",> 10000 nM,3000 nM,–,–
C=CCC1(CC=C)C(=O)C(C#N)(C#N)C[C@@]2(C)C1=CC[C@@H]1[C@@H]2CC[C@]2(C)C(=O)CC[C@@H]12 [Compound 63290],~10000 nM,–,~3000 nM,–
"CC1(C)C[C@@](C)(/C=C/c2ccc(O)cc2)C=C(C#N)C1=O [Compound R00142, (S,E)-3-(4-hydroxystyryl)-3,5,5-trimethyl-6-oxocyclohex-1-enecarbonitrile]",> 10000 nM,1200 nM,–,–
COCO[C@H]1C[C@H]2[C@@H]([C@H](OCOC)C[C@@H]3CC(=O)C(C#N)=C[C@@]32C)[C@@H]2CC[C@H]([C@H](C)CCC(=O)OC)[C@@]12C [Compound 63312],> 200 nM,–,~3500 nM,–
"CC1(C)C(=O)C(C#N)=C[C@]2(C)C3CC[C@@]4(C)C(CC[C@@H]4O)C3CCC12 (stereo partly drawn) [Compound D0017, (10S,13S,17S)-17-hydroxy-4,4,10,13-tetramethyl-3-oxo-4,5,6,7,8,9,10,11,12,13,14,15,16,17-tetradecahydro-3H-cyclopenta[a]phenanthrene-2-carbonitrile]",10000 nM,140 nM,–,–
"CC1(C)C(=O)C(C#N)=C[C@]2(C)C3CC[C@]4(C)C(=O)CCC4C3CCC12 (stereo partly drawn) [Compound D0018, (10S,13S)-4,4,10,13-tetramethyl-3,17-dioxo-4,5,6,7,8,9,10,11,12,13,14,15,16,17-tetradecahydro-3H-cyclopenta[a]phenanthrene-2-carbonitrile]",> 10000 nM,130 nM,–,"IC50 [1, 4]: 130 nM"
CCCC1(CCC)C(=O)C(C#N)=C[C@@]2(C)C1=CC[C@@H]1[C@@H]2CC[C@]2(C)C(=O)CC[C@@H]12 [Compound 63313],~2500 nM,–,~450 nM,–
"C[C@@H]1CC[C@@]2(OC1)O[C@H]1C[C@H]3[C@@H]4CC[C@H]5C[C@@H](O)CC[C@]5(C)[C@H]4CC(=O)[C@]3(C)[C@H]1[C@@H]2C [Hecogenin, hecogenin, reference compound]",–,–,–,"IC50 (RAW264.7 macrophages): > 10000 nM; IC50 ([1]; RAW264.7, 20 ng/ml IFNγ, read-out: NO IC50): > 10000 nM"
C[C@]12CC[C@H]3[C@@H](CC=C4C5(CCCC5)C(=O)C(C#N)=C[C@@]43C)[C@@H]1CC[C@@H]2O [Compound 63329],–,–,~60 nM,–
"COc1cc(/C=C/C(=O)C(C)(C)C(=O)/C=C/[C@@]2(C)C=C(C#N)C(=O)C(C)(C)C2)ccc1O [Compound C0009, (S)-3-((1E,6E)-7-(4-hydroxy-3-methoxyphenyl)-4,4-dimethyl-3,5-dioxohepta-1,6-dienyl)-3,5,5-trimethyl-6-oxocyclohex-1-enecarbonitrile]",1000 nM,100 nM,–,"IC50 [1, 4]: 100 nM"
C[C@]12C=C(C#N)C(=O)C3(CCCC3)C1=CC[C@@H]1[C@@H]2CC[C@@]2(C)[C@H]1CCC21OCCO1 [Compound 63317],–,–,~70 nM,–
COC(=O)CC[C@@H](C)[C@H]1CC[C@H]2[C@@H]3[C@H](O)C[C@@H]4CC(=O)C(C#N)=C[C@]4(C)[C@H]3C[C@H](O)[C@]12C [Compound 63314],> 200 nM,–,~8000 nM,–
CC1CC[C@@]2(OC1)OC1CC3C4CCC5CC(=O)C(C#N)=C[C@]5(C)C4=CC(=O)[C@]3(C)C1[C@@H]2C (stereo partly drawn) [Compound H0001],2500 nM,–,150 nM,–
"C[C@@]12CCC3C(CCC4=C(C#N)C(=O)CC[C@]43C)C1CCC2O (stereo partly drawn) [Compound D0015, (10S,13R)-17-hydroxy-10,13-dimethyl-3-oxo-2,3,6,7,8,9,10,11,12,13,14,15,16,17-tetradecahydro-1H-cyclopenta[a]phenanthrene-4-carbonitrile]",> 10000 nM,2900 nM,–,–
"COc1cc(/C=C/C(=O)CC(=O)/C=C/c2ccc(O)c(OC)c2)ccc1O [Curcumin, curcumin, reference compound]",4000 nM,1350 nM,–,"IC50 [1, 5]: 1500 nM"
C[C@]12C=C(C#N)C(=O)C3(CC=CC3)C1=CC[C@@H]1[C@@H]2CC[C@]2(C)C(=O)CC[C@@H]12 [Compound 63311],~750 nM,–,~20 nM,–
C[C@]12C=C(C#N)C(=O)C3(CCCC3)C1=CC[C@@H]1[C@@H]2CC[C@]2(C)C(=O)CC[C@@H]12 [Compound 63318],–,–,~50 nM,–
C[C@]12C=C(C#N)C(=O)C3(CC=CC3)C1=CC[C@@H]1[C@@H]2CC[C@@]2(C)[C@H]1CCC21OCCO1 [Compound 63304],~400 nM,–,~30 nM,–
"COCOC1CCC2C3CCC4=C(C#N)C(=O)CC[C@@]4(C)C3CC[C@@]12C (stereo partly drawn) [Compound D0014, (10S,13R)-17-(methoxymethoxy)-10,13-dimethyl-3-oxo-2,3,6,7,8,9,10,11,12,13,14,15,16,17-tetradecahydro-1H-cyclopenta[a]phenanthrene-4-carbonitrile]",> 10000 nM,–,2400 nM,–
"CC1(C)C(=O)C(C#N)=C[C@]2(C)C3CC[C@]4(C)C(O[Si](C)(C)C)CCC4C3CCC12 (stereo partly drawn) [Compound D0016, (10S,13S)-4,4,10,13-tetramethyl-3-oxo-17-(trimethylsilyloxy)-4,5,6,7,8,9,10,11,12,13,14,15,16,17-tetradecahydro-3H-cyclopenta[a]phenanthrene-2-carbonitrile]",10000 nM,150 nM,–,–
"C[C@]12CC[C@H](O)CC1=CC[C@@H]1[C@@H]2CC[C@]2(C)C(=O)CC[C@@H]12 [DHEA, dehydroandrosterone, reference compound]",> 10000 nM,> 10000 nM,–,"IC50 [1, 5]: > 10000 nM"
"COc1cc(C=CC2(C(C)(C)C(=O)/C=C/[C@@]3(C)C=C(C#N)C(=O)C(C)(C)C3)OCCO2)ccc1O[Si](C)(C)C(C)(C)C [Compound C0008, (S)-3-((E)-4-(2-(4-(tert-butyldimethylsilyloxy)-3-methoxystyryl)-1,3-dioxolan-2-yl)-4-methyl-3-oxopent-1-enyl)-3,5,5-trimethyl-6-oxocyclohex-1-enecarbonitrile]",5000 nM,–,340 nM,–
C=CCC1(CC=C)C(=O)C(C#N)(C#N)C[C@@]2(C)C1=CC[C@@H]1[C@@H]2CC[C@@]2(C)[C@H]1CCC21OCCO1 [Compound 63291],> 10000 nM,–,~1500 nM,–
"Oc1ccc(C=Cc2cc(O)cc(O)c2)cc1 [Resveratrol, resveratrol, reference compound]",> 10000 nM,> 10000 nM,–,–

# Reference: patent US9796668B2, “Natural product analogs including an anti-inflammatory cyanoenone pharmacore and methods of use” (REATA PHARMACEUTICALS, INC., priority 2008, dated 2017)
